From ChEMBL document CHEMBL1833885 (Bioorg Med Chem Lett, 2011)
pKi: −log10 of the molar value.

Legend:
Carbonic anhydrase 9 = Carbonic anhydrase 9 (Homo sapiens, UniProt Q16790)
Carbonic anhydrase 1 = Carbonic anhydrase 1 (Homo sapiens, UniProt P00915); assay: Inhibition of human carbonic anhydrase 1-catalyzed CO2 hydration activity by stopped flow assay
Carbonic anhydrase 1, sequence (P00915 whole entry): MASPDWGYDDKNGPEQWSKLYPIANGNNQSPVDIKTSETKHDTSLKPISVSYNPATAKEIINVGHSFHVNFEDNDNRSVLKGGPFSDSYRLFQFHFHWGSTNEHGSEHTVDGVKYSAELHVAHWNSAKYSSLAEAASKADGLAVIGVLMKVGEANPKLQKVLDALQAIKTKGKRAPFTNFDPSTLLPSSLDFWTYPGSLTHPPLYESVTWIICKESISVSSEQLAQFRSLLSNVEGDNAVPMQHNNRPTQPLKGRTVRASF

pKi (Carbonic anhydrase 9)	pKi (Carbonic anhydrase 1)	Compound
8.19	–	COc1cccc(C#Cc2ccc(S(N)(=O)=O)cc2)c1
8.24	–	NS(=O)(=O)c1ccc(C#Cc2cccc(F)c2)cc1
5.07	3.17	Cc1ccc(C#Cc2ccccc2S(N)(=O)=O)cc1
5.20	–	NS(=O)(=O)c1ccccc1C#Cc1ccccc1
5.07	3.38	NS(=O)(=O)c1ccccc1C#Cc1cccc(F)c1
